Results on 65 sequences are retold here after the supplement of paper PMC11208160.
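Also: IS621 bridge recombinase in Escherichia coli cells against a fixed T5 target plasmid.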

This series in a line: recombinant UMI read abundance after kanamycin selection (control-corrected) (log10(CPM+1)); higher = more efficient recombination; extreme values may be limits of the assay; sequences stand for … in AGTGCAGAGAAAATCGGCCAGTTTTCTCTGCCTGCAGTCCGCATGCCGTGGGACCCCTTGGGTTCTAACCTGTTGCCTAGATTTATGCAGCGGACTGCCTTTCTCCCAAAGTGATAAACCGG…AGGTTGGTTTCACT; site = the 11-nt donor. The procedure: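 Pooled E. coli donor-specificity screen for the IS621 bridge recombinase. Each library member carries a reprogrammed 11-nt donor and a full-length LE bridge RNA expressed in cis from the natural promoter, with a paired donor-binding loop (8-nt LDG + 4-nt RDG) and a target-binding loop fixed to T5. It is co-electroporated with a T5 target plasmid; recombinase is induced with 0.07 mM IPTG and recombinants are selected on kanamycin. UMIs are counted as CPM, averaged over two biological replicates and corrected by the unselected control. Molecule = full bridge RNA written as DNA, built from the T5 scaffold: LDG = donor specificity nt 1-8, RDG = reverse complement of nt 8-11.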
For “ACATTTACATGGACCGGTTTTCCCGGTAATCCGTATTTGTG (site ACATCTACTCA)”, the “recombinant UMI read abundance (log10)” value was found to be 0.162.

On to “ACATTTACATGGACCGGTTTTCCCGGTAATCCGTATTTGTG (site ACATGTACTCA)”, for which the “recombinant UMI read abundance (log10)” value was determined as 0.287.

As for “ACATTTACATGGACCGGTTTTCCCGGTAATCCGTATTTGTG (site ACATTTACTCA)”, the “recombinant UMI read abundance (log10)” value amounted to 0.706. To “ACCAACTCATGGACCGGTTTTCCCGGTAATCCGTATTTGCC (site ACCAACTCTGG)” belongs 1.81. As for “ACCACGCCATGGACCGGTTTTCCCGGTAATCCGTATTTGTA (site ACCACGCCTTA)”, the “recombinant UMI read abundance (log10)” value was 0.0245.

As to “ACCACGCCATGGACCGGTTTTCCCGGTAATCCGTATTTGTA (site CCCACGCCTTA)”, the “recombinant UMI read abundance (log10)” value was 0.143.

On to “ACCACGCCATGGACCGGTTTTCCCGGTAATCCGTATTTGTA (site GCCACGCCTTA)”, for which the “recombinant UMI read abundance (log10)” value was determined as 0.00875. For “ACCACGCCATGGACCGGTTTTCCCGGTAATCCGTATTTGTA (site TCCACGCCTTA)” the value was 0.0133.

With “ACCAGCTCATGGACCGGTTTTCCCGGTAATCCGTATTTGCT (site ACCAGCTCTAG)”, the “recombinant UMI read abundance (log10)” value worked out at 2.25. Take “ACCAGGTCATGGACCGGTTTTCCCGGTAATCCGTATTTGTA (site ACCAGGTCTTA)”: the “recombinant UMI read abundance (log10)” value came out at 2.54. For “ACCATATCATGGACCGGTTTTCCCGGTAATCCGTATTTGCA (site ACAGTATCTTG)” the value was 0.937; for “ACCATATCATGGACCGGTTTTCCCGGTAATCCGTATTTGCA (site ACCATATCTTG)”, 2.3; for “ACCCATCCATGGACCGGTTTTCCCGGTAATCCGTATTTGAC (site ACACATCCTGT)”, 0.0114.

Consider “ACCCATCCATGGACCGGTTTTCCCGGTAATCCGTATTTGAC (site ACCCATCCTGT)”, for which the “recombinant UMI read abundance (log10)” value came to 0.806. Regarding “ACCCATCCATGGACCGGTTTTCCCGGTAATCCGTATTTGAC (site ACGCATCCTGT)”, the “recombinant UMI read abundance (log10)” value turned out to be 0.

Take “ACCCATCCATGGACCGGTTTTCCCGGTAATCCGTATTTGAC (site ACTCATCCTGT)”: the “recombinant UMI read abundance (log10)” value is 0. Turning to “ACCCCAACATGGACCGGTTTTCCCGGTAATCCGTATTTGTA (site ACCCCAACTTA)”, the “recombinant UMI read abundance (log10)” value was 1.68. For “ACCCGATCATGGACCGGTTTTCCCGGTAATCCGTATTTGAT (site ACCCGATCTAT)”, the “recombinant UMI read abundance (log10)” value was determined as 1.53. For “ACCCGCTCATGGACCGGTTTTCCCGGTAATCCGTATTTGTC (site ACCCGCTCTGA)” the value was 2.76; for “ACCCGGGCATGGACCGGTTTTCCCGGTAATCCGTATTTGAC (site ACCCGGGCTGT)”, 2.02; for “ACCGAACCATGGACCGGTTTTCCCGGTAATCCGTATTTGGA (site ACCGAACCTTC)”, 0.00378. For “ACCGAATCATGGACCGGTTTTCCCGGTAATCCGTATTTGCA (site ACAGTATCTTG)” the value was 0; for “ACCGAATCATGGACCGGTTTTCCCGGTAATCCGTATTTGCA (site ACCGAATCTTG)”, 2.16; for “ACCGACGCATGGACCGGTTTTCCCGGTAATCCGTATTTGTT (site ACCGACGCTAA)”, 0.786. To “ACCGACTCATGGACCGGTTTTCCCGGTAATCCGTATTTGCC (site ACCGACTCTGG)” belongs 1.78; to “ACCGATCCATGGACCGGTTTTCCCGGTAATCCGTATTTGCA (site ACCGATCCTTG)”, 0.164.

Take “ACCGCTACATGGACCGGTTTTCCCGGTAATCCGTATTTGCG (site ACCGCTACTCG)”: the “recombinant UMI read abundance (log10)” value was found to be 1.01. For “ACCGCTGCATGGACCGGTTTTCCCGGTAATCCGTATTTGGC (site ACCGCTGCTGC)” the value was 2.08; for “ACCGGAACATGGACCGGTTTTCCCGGTAATCCGTATTTGTG (site ACCGGAACTCA)”, 1.41; for “ACCGGGACATGGACCGGTTTTCCCGGTAATCCGTATTTGAG (site ACCGGGACTCT)”, 1.23.

On to “ACCGGTCCATGGACCGGTTTTCCCGGTAATCCGTATTTGCC (site ACCGGTCCTGG)”, for which the “recombinant UMI read abundance (log10)” value stood at 0. As to “ACCGGTGCATGGACCGGTTTTCCCGGTAATCCGTATTTGAG (site ACCGGTGCTCT)”, the “recombinant UMI read abundance (log10)” value stood at 1.35. For “ACCGTATCATGGACCGGTTTTCCCGGTAATCCGTATTTGCT (site ACAGTATCTTG)” the value was 0; for “ACCGTATCATGGACCGGTTTTCCCGGTAATCCGTATTTGCT (site ACCGTATCTAG)”, 2.39. For “ACCGTATCATGGACCGGTTTTCCCGGTAATCCGTATTTGGT (site ACCGTATCTAC)” the value was 1.32; for “ACCTAAGCATGGACCGGTTTTCCCGGTAATCCGTATTTGGC (site ACCTAAGCTGC)”, 2.22; for “ACCTACCCATGGACCGGTTTTCCCGGTAATCCGTATTTGAC (site ACCTACCCTGT)”, 0.183. Consider “ACCTGATCATGGACCGGTTTTCCCGGTAATCCGTATTTGAT (site ACCTGATCTAT)”, for which the “recombinant UMI read abundance (log10)” value is 0.427. For “ACCTGCCCATGGACCGGTTTTCCCGGTAATCCGTATTTGTT (site ACCTGCCCTAA)” the value was 0.188. To “ACCTGGACATGGACCGGTTTTCCCGGTAATCCGTATTTGCA (site ACCTGGACTTG)” belongs 1.82. Take “ACCTGGACATGGACCGGTTTTCCCGGTAATCCGTATTTGTG (site ACCTGGACTCA)”: the “recombinant UMI read abundance (log10)” value was determined as 0.502. To “ACCTGGGCATGGACCGGTTTTCCCGGTAATCCGTATTTGTC (site ACCTGGGCTGA)” belongs 0; to “ACCTTAGCATGGACCGGTTTTCCCGGTAATCCGTATTTGAA (site ACCTTAGCTTT)”, 0.29. On to “ACCTTAGCATGGACCGGTTTTCCCGGTAATCCGTATTTGGT (site ACCTTAGCTAC)”, for which the “recombinant UMI read abundance (log10)” value was 0.271. With “ACCTTCTCATGGACCGGTTTTCCCGGTAATCCGTATTTGGG (site ACCTTCTCTCC)”, the “recombinant UMI read abundance (log10)” value is 0.00668. To “ACCTTCTCATGGACCGGTTTTCCCGGTAATCCGTATTTGGG (site CCCTTCTCTCC)” belongs 0.00967; to “ACCTTCTCATGGACCGGTTTTCCCGGTAATCCGTATTTGGG (site GCCTTCTCTCC)”, 0.00741. For “ACCTTCTCATGGACCGGTTTTCCCGGTAATCCGTATTTGGG (site TCCTTCTCTCC)” the value was 0.00341; for “ACGAACTCATGGACCGGTTTTCCCGGTAATCCGTATTTGTC (site ACGAACTCTGA)”, 2.03; for “ACGAAGACATGGACCGGTTTTCCCGGTAATCCGTATTTGTA (site ACGAAGACTTA)”, 2.82. To “ACGAAGACATGGACCGGTTTTCCCGGTAATCCGTATTTGTA (site AGGAAGACTTG)” belongs 0. “ACGAAGCCATGGACCGGTTTTCCCGGTAATCCGTATTTGGG (site ACGAAGCCTCC)”: the “recombinant UMI read abundance (log10)” value amounted to 0.0169.

Take “ACGAAGCCATGGACCGGTTTTCCCGGTAATCCGTATTTGGG (site CCGAAGCCTCC)”: the “recombinant UMI read abundance (log10)” value turned out to be 0.00571. For “ACGAAGCCATGGACCGGTTTTCCCGGTAATCCGTATTTGGG (site GCGAAGCCTCC)” the value was 0.0145. Turning to “ACGAAGCCATGGACCGGTTTTCCCGGTAATCCGTATTTGGG (site TCGAAGCCTCC)”, the “recombinant UMI read abundance (log10)” value was found to be 0.113. For “ACGACGCCATGGACCGGTTTTCCCGGTAATCCGTATTTGCT (site ACGACGCCTAG)”, the “recombinant UMI read abundance (log10)” value was 0. Regarding “ACGAGAACATGGACCGGTTTTCCCGGTAATCCGTATTTGCC (site ACGAGAACTGG)”, the “recombinant UMI read abundance (log10)” value is 2.44. To “ACGAGTTCATGGACCGGTTTTCCCGGTAATCCGTATTTGGA (site ACGAGTTCTTC)” belongs 2.41.

In the case of “ACGATAGCATGGACCGGTTTTCCCGGTAATCCGTATTTGTC (site ACGATAGCTGA)”, the “recombinant UMI read abundance (log10)” value came to 2.92. As to “ACGATGACATGGACCGGTTTTCCCGGTAATCCGTATTTGCA (site ACGATGACTTG)”, the “recombinant UMI read abundance (log10)” value was found to be 3.16. For “ACGATGACATGGACCGGTTTTCCCGGTAATCCGTATTTGCA (site AGGAAGACTTG)” the value was 0.907; for “ACGCACGCATGGACCGGTTTTCCCGGTAATCCGTATTTGGG (site AAGCACGCTCC)”, 0.0265; for “ACGCACGCATGGACCGGTTTTCCCGGTAATCCGTATTTGGG (site ACGCACGCTCC)”, 0.00911. For “ACGCACGCATGGACCGGTTTTCCCGGTAATCCGTATTTGGG (site AGGCACGCTCC)” the value was 0.00698. For “ACGCACGCATGGACCGGTTTTCCCGGTAATCCGTATTTGGG (site ATGCACGCTCC)”, the “recombinant UMI read abundance (log10)” value was determined as 0.12.
